The values below come from patent publication EP2727916A1, “Neuroprotective multi-target directed drugs” (Universitat Autònoma de Barcelona, priority 2012, dated 2014).

Experiment [1] addresses T1, ratMAO-A (Rattus norvegicus, UniProt P21396).
T1 sequence (P21396 1-526): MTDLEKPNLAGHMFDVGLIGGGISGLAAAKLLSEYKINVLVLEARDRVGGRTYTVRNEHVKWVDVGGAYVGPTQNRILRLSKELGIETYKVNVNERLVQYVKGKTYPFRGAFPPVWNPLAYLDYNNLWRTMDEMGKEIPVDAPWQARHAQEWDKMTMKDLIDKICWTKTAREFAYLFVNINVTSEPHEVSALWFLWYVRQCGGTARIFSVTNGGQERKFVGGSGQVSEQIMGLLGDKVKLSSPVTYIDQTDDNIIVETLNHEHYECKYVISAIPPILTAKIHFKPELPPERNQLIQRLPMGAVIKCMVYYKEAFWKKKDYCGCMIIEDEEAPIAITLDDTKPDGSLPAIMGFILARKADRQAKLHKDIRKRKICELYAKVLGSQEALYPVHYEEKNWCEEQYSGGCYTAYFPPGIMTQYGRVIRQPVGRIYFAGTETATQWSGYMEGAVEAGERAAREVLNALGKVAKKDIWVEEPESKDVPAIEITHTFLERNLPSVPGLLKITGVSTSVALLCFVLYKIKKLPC
Put plainly: MAO-A inhibition, radiometric method of Fowler and Tipton (14C 5-HT). In kind it is biochemical. Further details: MAO-A and MAO-B activities were determined in rat brain homogenate; from tissue; host or cells: rat brain homogenate per the methods. The note with it: 30 min pre-incubation at 37 °C; 100µM 5-HT; mean ± standard error of the mean.

The target of experiment [2] is T2, electrophorus electricus acetylcholinesterase (eeAChE) (Electrophorus electricus, UniProt O42275). Briefly: biochemical. In kind it is biochemical. Conditions: 20 minutes incubation at 37°C; mean ± standard error of the mean; read-out: IC50 EeAChE.
A further experiment addresses T3, bovine lung SSAO (Bos taurus, UniProt Q9TTK6).
T3 construct: and bovine lung SSAO by compounds of the invention; from tissue; host or cells: bovine lung
T3 sequence (Q9TTK6 1-763): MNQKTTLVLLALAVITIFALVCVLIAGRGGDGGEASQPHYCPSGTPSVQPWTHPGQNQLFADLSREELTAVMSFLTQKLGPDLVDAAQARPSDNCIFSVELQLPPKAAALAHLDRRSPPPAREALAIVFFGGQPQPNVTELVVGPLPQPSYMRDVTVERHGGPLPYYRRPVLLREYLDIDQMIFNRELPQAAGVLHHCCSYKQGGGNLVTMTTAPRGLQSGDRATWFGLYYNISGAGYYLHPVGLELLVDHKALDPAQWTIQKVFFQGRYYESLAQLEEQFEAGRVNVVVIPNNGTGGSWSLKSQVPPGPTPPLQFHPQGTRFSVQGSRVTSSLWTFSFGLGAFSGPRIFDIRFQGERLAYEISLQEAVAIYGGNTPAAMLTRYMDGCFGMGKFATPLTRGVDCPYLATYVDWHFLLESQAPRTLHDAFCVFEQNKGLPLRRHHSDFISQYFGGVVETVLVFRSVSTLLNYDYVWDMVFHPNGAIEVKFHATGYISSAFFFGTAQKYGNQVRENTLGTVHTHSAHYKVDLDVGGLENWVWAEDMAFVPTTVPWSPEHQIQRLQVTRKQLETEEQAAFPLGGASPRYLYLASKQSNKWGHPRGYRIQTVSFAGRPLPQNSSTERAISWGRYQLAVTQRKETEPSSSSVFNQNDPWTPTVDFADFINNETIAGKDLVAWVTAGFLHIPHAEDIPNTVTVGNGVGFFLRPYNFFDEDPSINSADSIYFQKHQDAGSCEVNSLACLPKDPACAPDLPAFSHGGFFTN
Briefly: Inhibition of semicarbazide sensitive amine oxidase (SSAO), radiochemical. In kind it is biochemical. Conditions: bovine lung SSAO; mean ± standard error of the mean; read-out: IC50 bovineSSAO.

Experiment [3] concerns the target T4, equine serum butyrylcholinesterase (eqBuChE) (Equus caballus, UniProt P81908). Put plainly: biochemical. In kind it is biochemical.
Experiment [4] has as its target T5, ratMAO-B (Rattus norvegicus, UniProt P19643).
T5 sequence (P19643 1-520): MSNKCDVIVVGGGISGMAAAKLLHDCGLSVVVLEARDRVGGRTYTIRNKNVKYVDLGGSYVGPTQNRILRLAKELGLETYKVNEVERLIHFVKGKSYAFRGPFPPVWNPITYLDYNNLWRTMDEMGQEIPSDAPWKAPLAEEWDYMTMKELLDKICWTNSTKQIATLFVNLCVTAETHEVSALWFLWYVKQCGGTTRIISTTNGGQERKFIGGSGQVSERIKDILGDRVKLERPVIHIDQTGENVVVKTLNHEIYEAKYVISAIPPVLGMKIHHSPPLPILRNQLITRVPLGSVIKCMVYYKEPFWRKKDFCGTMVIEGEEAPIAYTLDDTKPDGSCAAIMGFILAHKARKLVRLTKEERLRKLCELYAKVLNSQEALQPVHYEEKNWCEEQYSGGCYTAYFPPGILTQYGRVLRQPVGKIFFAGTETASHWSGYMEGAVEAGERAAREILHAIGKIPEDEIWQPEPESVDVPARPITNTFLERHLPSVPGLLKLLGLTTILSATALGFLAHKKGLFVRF
Briefly: MAO-B inhibition, radiometric method of Fowler and Tipton (14C PEA). The class given is biochemical. Set-up: MAO-A and MAO-B activities were determined in rat brain homogenate; from tissue; host or cells: rat brain homogenate per the methods. Conditions: for IC50: 30 min pre-incubation at 37 °C, 20 µM PEA, mean ± standard error of the mean.

In experiment [5] the target is T1, ratMAO-A. Further details: MAO-A and MAO-B activities were determined in rat brain homogenate; from tissue; host or cells: rat brain homogenate per the methods. Conditions: reference value, footnote (a) Zheng et al. 2010; cited from earlier work.
Experiment [6] has as its target T5, ratMAO-B. Further details: MAO-A and MAO-B activities were determined in rat brain homogenate; from tissue; host or cells: rat brain homogenate per the methods. Conditions: reference value, footnote (a) Zheng et al. 2010; cited from earlier work.
Experiment [7] concerns the target T2, electrophorus electricus acetylcholinesterase (eeAChE). Conditions: reference value, footnote (a) Zheng et al. 2010; cited from earlier work.
Experiment [8] addresses T4, equine serum butyrylcholinesterase (eqBuChE). Conditions: reference value, footnote (a) Zheng et al. 2010; cited from earlier work.
[9] abbreviates: 20 minutes incubation at 37°C, mean ± standard error of the mean, read-out: IC50 eqBuChE.

Like-named read-outs stand apart in the source and are kept apart here.

T2 sequence (O42275 24-633): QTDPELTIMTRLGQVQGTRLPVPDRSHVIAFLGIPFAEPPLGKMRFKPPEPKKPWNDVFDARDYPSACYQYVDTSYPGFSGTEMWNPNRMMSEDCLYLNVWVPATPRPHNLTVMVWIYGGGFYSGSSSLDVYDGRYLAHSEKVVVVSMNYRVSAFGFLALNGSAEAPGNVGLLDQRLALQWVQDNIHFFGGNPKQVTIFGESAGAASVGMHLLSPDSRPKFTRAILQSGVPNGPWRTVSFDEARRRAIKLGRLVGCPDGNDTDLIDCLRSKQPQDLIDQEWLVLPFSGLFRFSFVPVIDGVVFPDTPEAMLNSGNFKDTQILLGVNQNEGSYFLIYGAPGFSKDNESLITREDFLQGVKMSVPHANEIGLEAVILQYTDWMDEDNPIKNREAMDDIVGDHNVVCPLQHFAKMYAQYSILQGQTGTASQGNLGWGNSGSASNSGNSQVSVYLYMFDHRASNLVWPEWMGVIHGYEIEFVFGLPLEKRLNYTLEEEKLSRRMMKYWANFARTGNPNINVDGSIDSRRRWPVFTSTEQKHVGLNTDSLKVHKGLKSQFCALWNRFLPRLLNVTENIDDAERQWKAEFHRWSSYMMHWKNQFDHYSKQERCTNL
T4 sequence (P81908 whole entry): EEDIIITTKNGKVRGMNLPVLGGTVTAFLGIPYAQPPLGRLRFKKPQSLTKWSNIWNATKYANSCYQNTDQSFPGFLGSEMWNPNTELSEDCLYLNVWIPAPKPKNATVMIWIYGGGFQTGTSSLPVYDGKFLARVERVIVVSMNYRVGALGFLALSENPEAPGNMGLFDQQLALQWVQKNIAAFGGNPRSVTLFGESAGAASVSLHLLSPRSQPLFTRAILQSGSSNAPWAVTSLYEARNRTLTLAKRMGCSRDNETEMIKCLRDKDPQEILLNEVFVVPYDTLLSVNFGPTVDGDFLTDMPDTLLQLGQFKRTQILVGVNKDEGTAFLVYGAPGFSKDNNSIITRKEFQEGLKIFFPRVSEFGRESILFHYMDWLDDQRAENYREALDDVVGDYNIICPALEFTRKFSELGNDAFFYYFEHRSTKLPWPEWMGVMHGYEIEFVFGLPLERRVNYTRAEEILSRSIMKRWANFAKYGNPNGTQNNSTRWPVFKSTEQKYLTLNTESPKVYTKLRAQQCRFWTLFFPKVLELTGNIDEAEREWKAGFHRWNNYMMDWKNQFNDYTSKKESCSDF

On to `C#CCN(Cc1ccc(O)c2ncccc12)CC1CCN(Cc2ccccc2)CC1` [Compound 3, 5-((((1-benzylpiperidin-4-yl)methyl)(prop-2-ynyl)amino)methyl)quinolin-8-ol], for which the IC50 (in general, the concentration that inhibits the measured activity by half) was 85.4 ± 3.7 µM against ratMAO-A [1]; 17 ± 4.7 µM in [2]; at least 100 µM on bovine lung SSAO; 12.8 ± 1.4 µM in experiment [3] (setting [9]); 19.4 ± 3.2 µM at ratMAO-B [4]. For the same compound, in [3] (ratio of IC50 values), the “BuChE/ AChE” value was found to be 0.75. For the same compound, at ratMAO-B [4] (ratio of IC50 values), the “MAO-B/ MAO-A” value is 0.22.

Turning to `C#CCN(CCC1CCN(Cc2ccccc2)CC1)Cc1ccc(O)c2ncccc12` [Compound 5, 5-(((2-(1-benzylpiperidin-4-yl)ethyl)(prop-2-ynyl)amino)methyl)quinolin-8-ol], the IC50 against ratMAO-A [1] was at least 100 µM; in experiment [2], 5.01 ± 0.8 µM; on bovine lung SSAO it was 39.7 ± 16 µM; in experiment [3] (setting [9]) it was 14.5 ± 3.6 µM; on ratMAO-B [4], 50.08 ± 0.5 µM. For the same compound, in experiment [3] (ratio of IC50 values), the “BuChE/ AChE” value is 2.8. For the same compound, on ratMAO-B [4] (ratio of IC50 values), the “MAO-B/ MAO-A” value is at least 0.5.

Take `C#CCN(C)Cc1ccc(O)c2ncccc12` [Compound M-30]: the IC50 is 0.037 ± 0.02 µM at ratMAO-A [5], 0.057 ± 0.02 µM at ratMAO-B [6], 114 ± 14.1 µM in experiment [7] and at least 100 µM in [8]. Moreover, the “IC50 eqBuChE” value in experiment [8] is “inactive”. On ratMAO-B [4], the “MAO-B/ MAO-A” value is recorded as 1.5.

`C#CCN(Cc1ccc(O)c2ncccc12)C(C#N)C1CCN(Cc2ccccc2)CC1` (centres unmarked) [Compound 2, 2-(1-benzylpiperidin-4-yl)-2-(((8-hydroxyquinolin-5-yl)methyl)(prop-2-ynyl)amino)acetonitrile]: the IC50 on ratMAO-A [1] was 22.1 ± 0.7 µM; in [2], 14.5 ± 3.7 µM; on bovine lung SSAO, 18 ± 5 µM; in experiment [3] (setting [9]), 13.5 ± 1.8 µM; on ratMAO-B [4], 39.5 ± 1.4 µM. For the same compound, the “BuChE/ AChE” value in experiment [3] (ratio of IC50 values) stood at 0.92. In addition, the “MAO-B/ MAO-A” value at ratMAO-B [4] is 1.7.

For `C#CCN(Cc1ccc(O)c2ncccc12)C(C#N)CC1CCN(Cc2ccccc2)CC1` (centres unmarked) [Compound 4, 3-(1-benzylpiperidin-4-yl)-2-(((8-hydroxyquinolin-5-yl)methyl)(prop-2-ynyl)amino)propanenitrile], the half-maximal inhibitory concentration (IC50) on ratMAO-A [1] is 9.67 ± 1.5 µM; in [2], 5.53 ± 0.5 µM; at bovine lung SSAO, 2.79 ± 0.7 µM; in [3], 6.06 ± 0.6 µM; on ratMAO-B [4], 12.4 ± 2.5 µM. Besides, the “BuChE/ AChE” value in [3] came to 1.1. The “MAO-B/ MAO-A” value at ratMAO-B [4] stood at 1.2.

Turning to `C#CCN(CCCC1CCN(Cc2ccccc2)CC1)Cc1ccc(O)c2ncccc12` [Compound 7, 5-(((3-(1-benzylpiperidin-4-yl)propyl)(prop-2-ynyl)amino)methyl)quinolin-8-ol], the IC50 at ratMAO-A [1] was at least 100 µM; in [2], 2.67 ± 0.4 µM; on bovine lung SSAO, 61.1 ± 21.4 µM; in experiment [3] (setting [9]) it was 4.52 ± 0.3 µM; against ratMAO-B [4] it was 34.5 ± 3.5 µM. For the same compound, in experiment [3] (ratio of IC50 values), the “BuChE/ AChE” value is listed as 1.6. The “MAO-B/ MAO-A” value on ratMAO-B [4] (ratio of IC50 values) is given as at least 0.34.
